# Reference: ChEMBL document CHEMBL3867433, “Synthesis and antimicrobial activity of styryl/pyrrolyl/pyrazolyl sulfonylmethyl-1,3,4-oxadiazolyl amines and styryl/pyrrolyl/pyrazolyl sulfonylmethyl-1,3,4-thiadiazolyl amines” (2016)
# How the values were obtained:
# Format in all cases: functional
# [1] = test system: Staphylococcus aureus; test: Antibacterial activity against Staphylococcus aureus at 50 ug/well after 24 hrs by agar well diffusion method; details: read-out: DIZ
# [2] = test system: Pseudomonas aeruginosa; test: Ratio of MBC to MIC for Pseudomonas aeruginosa
# [3] = test system: Klebsiella pneumoniae; test: Antibacterial activity against Klebsiella pneumoniae at 25 ug/well after 24 hrs by agar well diffusion method; details: read-out: DIZ
# [4] = test system: Klebsiella pneumoniae; test: Antibacterial activity against Klebsiella pneumoniae at 12.5 ug/well after 24 hrs by agar well diffusion method; details: read-out: DIZ
# [5] = test system: Klebsiella pneumoniae; test: Antibacterial activity against Klebsiella pneumoniae at 50 ug/well after 24 hrs by agar well diffusion method; details: read-out: DIZ
# [6] = test system: Aspergillus niger; test: Antifungal activity against Aspergillus niger assessed as inhibition of spore germination at 12.5 ug/well after 48 hrs by agar well diffusion method; details: read-out: DIZ
# [7] = test system: Bacillus subtilis; test: Antibacterial activity against Bacillus subtilis after 24 hrs by broth dilution method
# [8] = test system: Bacillus subtilis; test: Antibacterial activity against Bacillus subtilis at 50 ug/well after 24 hrs by agar well diffusion method; details: read-out: DIZ
# [9] = test system: Pseudomonas aeruginosa; test: Antibacterial activity against Pseudomonas aeruginosa at 50 ug/well after 24 hrs by agar well diffusion method; details: read-out: DIZ
# [10] = Antifungal activity against Penicillium chrysogenum assessed as inhibition of spore germination at 100 ug/well after 48 hrs by agar well diffusion method
# [11] = test system: Aspergillus niger; test: Antifungal activity against Aspergillus niger assessed as inhibition of spore germination at 50 ug/well after 48 hrs by agar well diffusion method; details: read-out: DIZ
# [12] = test system: Pseudomonas aeruginosa; test: Antibacterial activity against Pseudomonas aeruginosa at 25 ug/well after 24 hrs by agar well diffusion method; details: read-out: DIZ
# [13] = Antifungal activity against Penicillium chrysogenum assessed as inhibition of spore germination at 50 ug/well after 48 hrs by agar well diffusion method
# [14] = test system: Penicillium chrysogenum; test: Fungicidal activity against Penicillium chrysogenum assessed as inhibition of spore germination after 48 hrs
# [15] = test system: Staphylococcus aureus; test: Antibacterial activity against Staphylococcus aureus at 100 ug/well after 24 hrs by agar well diffusion method; details: read-out: DIZ
# [16] = test system: Klebsiella pneumoniae; test: Antibacterial activity against Klebsiella pneumoniae at 100 ug/well after 24 hrs by agar well diffusion method; details: read-out: DIZ
# [17] = test system: Aspergillus niger; test: Antifungal activity against Aspergillus niger assessed as inhibition of spore germination after 48 hrs by broth dilution method
# [18] = test system: Bacillus subtilis; test: Antibacterial activity against Bacillus subtilis at 12.5 ug/well after 24 hrs by agar well diffusion method; details: read-out: DIZ
# [19] = test system: Klebsiella pneumoniae; test: Bactericidal activity against Klebsiella pneumoniae after 24 hrs
# [20] = test system: Pseudomonas aeruginosa; test: Antibacterial activity against Pseudomonas aeruginosa at 12.5 ug/well after 24 hrs by agar well diffusion method; details: read-out: DIZ
# [21] = test system: Staphylococcus aureus; test: Antibacterial activity against Staphylococcus aureus at 12.5 ug/well after 24 hrs by agar well diffusion method; details: read-out: DIZ
# [22] = test system: Aspergillus niger; test: Antifungal activity against Aspergillus niger assessed as inhibition of spore germination at 100 ug/well after 48 hrs by agar well diffusion method; details: read-out: DIZ
# [23] = test system: Bacillus subtilis; test: Antibacterial activity against Bacillus subtilis at 100 ug/well after 24 hrs by agar well diffusion method; details: read-out: DIZ
# [24] = test system: Bacillus subtilis; test: Bactericidal activity against Bacillus subtilis after 24 hrs
# [25] = test system: Staphylococcus aureus; test: Bactericidal activity against Staphylococcus aureus after 24 hrs
# [26] = test system: Pseudomonas aeruginosa; test: Antibacterial activity against Pseudomonas aeruginosa at 100 ug/well after 24 hrs by agar well diffusion method; details: read-out: DIZ
# [27] = test system: Aspergillus niger; test: Antifungal activity against Aspergillus niger assessed as inhibition of spore germination at 25 ug/well after 48 hrs by agar well diffusion method; details: read-out: DIZ
# [28] = test system: Klebsiella pneumoniae; test: Antibacterial activity against Klebsiella pneumoniae after 24 hrs by broth dilution method
# [29] = test system: Staphylococcus aureus; test: Antibacterial activity against Staphylococcus aureus at 25 ug/well after 24 hrs by agar well diffusion method; details: read-out: DIZ
# [30] = Antifungal activity against Penicillium chrysogenum assessed as inhibition of spore germination after 48 hrs by broth dilution method
# [31] = test system: Pseudomonas aeruginosa; test: Bactericidal activity against Pseudomonas aeruginosa after 24 hrs
# [32] = test system: Bacillus subtilis; test: Antibacterial activity against Bacillus subtilis at 25 ug/well after 24 hrs by agar well diffusion method; details: read-out: DIZ
# [33] = test system: Penicillium chrysogenum; test: Ratio of MFC to MIC for Penicillium chrysogenum
# [34] = test system: Aspergillus niger; test: Fungicidal activity against Aspergillus niger assessed as inhibition of spore germination after 48 hrs
# [35] = Antifungal activity against Penicillium chrysogenum assessed as inhibition of spore germination at 12.5 ug/well after 48 hrs by agar well diffusion method
# [36] = test system: Staphylococcus aureus; test: Antibacterial activity against Staphylococcus aureus after 24 hrs by broth dilution method
# [37] = Antifungal activity against Penicillium chrysogenum assessed as inhibition of spore germination at 25 ug/well after 48 hrs by agar well diffusion method
# [38] = test system: Pseudomonas aeruginosa; test: Antibacterial activity against Pseudomonas aeruginosa after 24 hrs by broth dilution method
SMILES,zone of inhibition at 50 µg/disc [1] [mm],zone of inhibition at 25 µg/disc [3] [mm],zone of inhibition at 12.5 µg/disc [4] [mm],zone of inhibition at 50 µg/disc [5] [mm],zone of inhibition at 12.5 µg/disc [6] [mm],zone of inhibition at 50 µg/disc [8] [mm],zone of inhibition at 50 µg/disc [9] [mm],inhibition zone (IZ) [10] [mm],zone of inhibition at 50 µg/disc [11] [mm],zone of inhibition at 25 µg/disc [12] [mm],inhibition zone (IZ) [13] [mm],zone of inhibition at 100 µg/disc [15] [mm],zone of inhibition at 100 µg/disc [16] [mm],zone of inhibition at 12.5 µg/disc [18] [mm],zone of inhibition at 12.5 µg/disc [20] [mm],zone of inhibition at 12.5 µg/disc [21] [mm],zone of inhibition at 100 µg/disc [22] [mm],zone of inhibition at 100 µg/disc [23] [mm],zone of inhibition at 100 µg/disc [26] [mm],zone of inhibition at 25 µg/disc [27] [mm],also measured
Nc1nnc(CS(=O)(=O)/C=C\c2ccc(Cl)cc2)s1,24,34,32,36,27,30,28,41,31,26,37,26,38,28,24,22,32,32,34,29,Ratio [2]: 2; MIC [7]: 25 µg/mL; MFC [14]: 25 µg/mL; MIC [17]: 12.5 µg/mL; MBC [19]: 50 µg/mL; MBC [24]: 100 µg/mL; MBC [25]: > 100 µg/mL; MIC [28]: 12.5 µg/mL; zone of inhibition at 25 µg/disc [29]: 23 mm; MIC [30]: 12.5 µg/mL; MBC [31]: 12.5 µg/mL; zone of inhibition at 25 µg/disc [32]: 29 mm; Ratio [33]: 2; MFC [34]: 50 µg/mL; inhibition zone (IZ) [35]: 34 mm; MIC [36]: 25 µg/mL; inhibition zone (IZ) [37]: 35 mm; MIC [38]: 6.25 µg/mL
Nc1nnc(CS(=O)(=O)/C=C\c2ccccc2)s1,23,29,27,31,25,29,27,35,29,25,36,25,33,27,23,21,31,31,29,27,zone of inhibition at 25 µg/disc [29]: 22 mm; zone of inhibition at 25 µg/disc [32]: 28 mm; inhibition zone (IZ) [35]: 29 mm; inhibition zone (IZ) [37]: 34 mm
Nc1nnc(CS(=O)(=O)c2c[nH]cc2-c2ccccc2)s1,22,27,26,29,12,22,23,31,16,21,29,24,31,20,19,17,18,24,25,14,zone of inhibition at 25 µg/disc [29]: 19 mm; zone of inhibition at 25 µg/disc [32]: 21 mm; inhibition zone (IZ) [35]: 25 mm; inhibition zone (IZ) [37]: 27 mm
CC(=O)N1CCN(c2ccc(OCC3COC(Cn4ccnc4)(c4ccc(Cl)cc4Cl)O3)cc2)CC1 (stereo not drawn) [KETOCONAZOLE],–,–,–,–,29,–,–,39,34,–,37,–,–,–,–,–,37,–,–,31,MIC [17]: 6.25 µg/mL; MIC [30]: 12.5 µg/mL; inhibition zone (IZ) [35]: 34 mm; inhibition zone (IZ) [37]: 36 mm
O=C(N[C@H](CO)[C@H](O)c1ccc([N+](=O)[O-])cc1)C(Cl)Cl [CHLORAMPHENICOL],35,40,38,42,–,36,29,–,–,27,–,37,44,32,25,30,–,40,32,–,MIC [7]: 6.25 µg/mL; MIC [28]: 12.5 µg/mL; zone of inhibition at 25 µg/disc [29]: 32 mm; zone of inhibition at 25 µg/disc [32]: 34 mm; MIC [36]: 6.25 µg/mL; MIC [38]: 6.25 µg/mL
Cc1ccc(/C=C\S(=O)(=O)Cc2nnc(N)s2)cc1,21,25,23,27,22,27,25,31,26,23,29,23,29,25,21,19,28,29,27,24,zone of inhibition at 25 µg/disc [29]: 20 mm; zone of inhibition at 25 µg/disc [32]: 26 mm; inhibition zone (IZ) [35]: 25 mm; inhibition zone (IZ) [37]: 27 mm
Nc1nnc(CS(=O)(=O)/C=C\c2ccc(Cl)cc2)o1,16,18,16,20,13,15,19,20,17,17,18,20,22,13,15,12,19,17,21,15,zone of inhibition at 25 µg/disc [29]: 14 mm; zone of inhibition at 25 µg/disc [32]: 14 mm; inhibition zone (IZ) [35]: 15 mm; inhibition zone (IZ) [37]: 16 mm
Nc1nnc(CS(=O)(=O)c2n[nH]cc2-c2ccccc2)s1,22,28,26,30,23,27,25,36,27,23,34,24,32,25,22,20,29,29,27,25,zone of inhibition at 25 µg/disc [29]: 21 mm; zone of inhibition at 25 µg/disc [32]: 26 mm; inhibition zone (IZ) [35]: 30 mm; inhibition zone (IZ) [37]: 32 mm
